Measured values: patent US8536196B2, “Substituted 1,3-dioxanes useful as PPAR modulators” (Evolva SA, priority 2007, dated 2013)

Columns and labels:
[1] = biological target: T1, full length human PPARdelta (Homo sapiens, UniProt Q03181); assay: Transactivation assay with full length human PPARdelta; format: cell-based
T1 construct: expressed in transfected cells
T1 sequence (Q03181 1-441): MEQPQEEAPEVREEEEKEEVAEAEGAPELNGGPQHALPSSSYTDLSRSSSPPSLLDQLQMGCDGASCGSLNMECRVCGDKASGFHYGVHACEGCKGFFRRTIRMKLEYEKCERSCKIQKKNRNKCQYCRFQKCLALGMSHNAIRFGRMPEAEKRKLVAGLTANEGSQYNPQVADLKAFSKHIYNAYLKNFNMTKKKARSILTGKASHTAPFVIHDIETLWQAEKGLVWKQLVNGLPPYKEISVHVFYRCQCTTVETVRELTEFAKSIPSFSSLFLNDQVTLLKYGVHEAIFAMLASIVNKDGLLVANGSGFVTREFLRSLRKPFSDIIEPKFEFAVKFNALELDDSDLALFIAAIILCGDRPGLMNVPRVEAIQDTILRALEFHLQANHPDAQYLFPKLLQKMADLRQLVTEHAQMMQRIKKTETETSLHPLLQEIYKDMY

PPARgamma (h) = biological target: T2, PPARgamma (h) (Homo sapiens, UniProt P37231); assay: Human recombinant (E. coli) PPARgamma (h) binding assay; settings: [3H]-rosiglitazone 10 nM, 120 min at 4° C.
T2 construct: host or cells: E. coli
T2 sequence (P37231 1-505): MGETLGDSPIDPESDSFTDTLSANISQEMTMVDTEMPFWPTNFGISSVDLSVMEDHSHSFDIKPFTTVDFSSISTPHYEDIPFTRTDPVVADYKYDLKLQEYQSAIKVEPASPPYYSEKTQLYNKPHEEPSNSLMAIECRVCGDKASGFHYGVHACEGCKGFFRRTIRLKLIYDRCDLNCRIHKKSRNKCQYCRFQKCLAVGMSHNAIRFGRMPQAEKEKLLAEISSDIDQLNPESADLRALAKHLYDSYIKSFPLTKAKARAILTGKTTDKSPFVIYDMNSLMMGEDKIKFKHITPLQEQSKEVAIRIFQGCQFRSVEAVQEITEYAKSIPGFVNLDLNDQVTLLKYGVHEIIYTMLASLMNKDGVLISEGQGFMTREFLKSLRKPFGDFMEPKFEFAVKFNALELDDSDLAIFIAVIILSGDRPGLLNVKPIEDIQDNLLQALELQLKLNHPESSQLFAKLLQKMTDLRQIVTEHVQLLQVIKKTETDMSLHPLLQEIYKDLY
Protocol: The results are expressed as a percent of control specific binding ((measured specific binding/control specific binding)×100) obtained in the presence of the test compounds. The IC50 values (concentration causing a half-maximal inhibition of control specific binding) and Hill coefficients (nH) were determined by non-linear regression analysis of the competition curves generated with mean replicate values using Hill equation curve fitting (Y=D+[(A D)/(1+(C/C50)nH)], where Y=specific binding, D=minimum specific binding, A=maximum specific binding, C=compound concentration, C50=IC50, and nH=slope factor). This analysis was performed using a software developed at Cerep (Hill software) and validated by comparison with data generated by the commercial software SigmaPlot® 4.0 for Windows® (© 1997 by SPSS Inc.). The inhibition constants (Ki) were calculated using the Cheng Prusoff equation (Ki=IC50/(1+(L/KD)), where L=concentration of radioligand in the assay, and KD=affinity of the radioligand for the receptor).

O=C(O)CC/C=C\CC1COC(c2ccccc2Cl)OC1c1ccccc1O (racemic) [SN1, (Z)-6-(-2-(2-chlorophenyl)-4-(2-hydroxyphenyl)-1,3-dioxan-5-yl)hex-4-enoic acid]
activation of full-length hPPARdelta [1]: no activation
IC50 (PPARgamma (h)): 21 µM
